Laboratory results from ChEMBL document CHEMBL6127119 (J Med Chem, 2024).
Converted amounts (≈) assume the structure as drawn.

Key:
Assay type in all cases: functional
Conditions in all cases: time 16-24 hrs
Klebsiella pneumoniae = assay: Antibacterial activity against Klebsiella pneumoniae clinical isolate incubated for 16 to 24 hrs by CLSI based broth microdilution method
Enterococcus faecium [1] = assay: Potency index, ratio of Norvancomycin MIC to test compound MIC for vancomycin-resistant Enterococcus faecium incubated for 16 to 24 hrs by CLSI based broth microdilution method
Escherichia coli [2] = assay: Potency index, ratio of Vancomycin MIC to test compound MIC for Escherichia coli […] incubated for 16 to 24 hrs by CLSI based broth microdilution method
Acinetobacter baumannii [3] = assay: Potency index, ratio of Vancomycin MIC to test compound MIC for Carbapenem-resistant Acinetobacter baumannii clinical isolate incubated for 16 to 24 hrs by CLSI based broth microdilution method
Staphylococcus aureus [4] = assay: Antibacterial activity against vancomycin-intermediate Staphylococcus aureus incubated for 16 to 24 hrs by CLSI based broth microdilution method
Staphylococcus aureus [5] = assay: Potency index, ratio of Vancomycin MIC to test compound MIC for vancomycin-intermediate Staphylococcus aureus incubated for 16 to 24 hrs by CLSI based broth microdilution method
Enterococcus faecium [6] = assay: Antibacterial activity against vancomycin-resistant Enterococcus faecium harboring VanM phenotype incubated for 16 to 24 hrs by CLSI based broth microdilution method
Acinetobacter baumannii [7] = assay: Potency index, ratio of Norvancomycin MIC to test compound MIC for Carbapenem-resistant Acinetobacter baumannii clinical isolate incubated for 16 to 24 hrs by CLSI based broth microdilution method
Enterococcus faecium [8] = assay: Antibacterial activity against vancomycin-resistant Enterococcus faecium harboring VanA phenotype incubated for 16 to 24 hrs by CLSI based broth microdilution method
Staphylococcus aureus [9] = assay: Antibacterial activity against methicillin-susceptible Staphylococcus aureus incubated for 16 to 24 hrs by CLSI based broth microdilution method
Escherichia coli [10] = assay: Potency index, ratio of Norvancomycin MIC to test compound MIC for Escherichia coli […] incubated for 16 to 24 hrs by CLSI based broth microdilution method
Enterococcus faecium [11] = assay: Antibacterial activity against vancomycin-resistant Enterococcus faecium harboring VanB phenotype incubated for 16 to 24 hrs by CLSI based broth microdilution method
Acinetobacter baumannii [12] = assay: Antibacterial activity against Carbapenem-resistant Acinetobacter baumannii clinical isolate incubated for 16 to 24 hrs by CLSI based broth microdilution method
Escherichia coli [13] = assay: Antibacterial activity against Escherichia coli AB1157 incubated for 16 to 24 hrs by CLSI based broth microdilution method
Enterococcus faecium [14] = assay: Potency index, ratio of Vancomycin MIC to test compound MIC for vancomycin-resistant Enterococcus faecium incubated for 16 to 24 hrs by CLSI based broth microdilution method
Staphylococcus aureus [15] = assay: Potency index, ratio of Norvancomycin MIC to test compound MIC for vancomycin-intermediate Staphylococcus aureus incubated for 16 to 24 hrs by CLSI based broth microdilution method
Pseudomonas aeruginosa = assay: Antibacterial activity against Pseudomonas aeruginosa PAO1 incubated for 16 to 24 hrs by CLSI based broth microdilution method

## CN[C@H](CC(C)C)C(=O)N[C@H]1C(=O)N[C@@H](CC(N)=O)C(=O)N[C@H]2C(=O)N[C@H]3C(=O)N[C@H](C(=O)N[C@H](C(=O)NCCc4ccc(-c5ccc(CNC(=N)N)cc5)cc4)c4cc(O)cc(O)c4-c4cc3ccc4O)[C@H](O)c3ccc(c(Cl)c3)Oc3cc2cc(c3O[C@@H]2O[C@H](CO)[C@@H](O)[C@H](O)[C@H]2O[C@H]2C[C@](C)(N)[C@H](O)[C@H](C)O2)Oc2ccc(cc2Cl)[C@H]1O
Klebsiella pneumoniae
  MIC: > 128 µg/mL
Enterococcus faecium [1]
  Ratio: 2
Escherichia coli [2]
  Ratio: 2
Acinetobacter baumannii [3]
  Ratio: 2
Staphylococcus aureus [4]
  MIC: 0.5 µg/mL (≈ 0.294 µM)
Staphylococcus aureus [5]
  Ratio: 2
Enterococcus faecium [6]
  MIC: 2 µg/mL (≈ 1.18 µM)
Acinetobacter baumannii [7]
  Ratio: 2
Enterococcus faecium [8]
  MIC: 2 µg/mL (≈ 1.18 µM)
Staphylococcus aureus [9]
  MIC: 0.125 µg/mL (≈ 0.0735 µM)
Escherichia coli [10]
  Ratio: 2
Enterococcus faecium [11]
  MIC: 4 µg/mL (≈ 2.35 µM)
Acinetobacter baumannii [12]
  MIC: 64 µg/mL (≈ 37.7 µM)
Escherichia coli [13]
  MIC: 8 µg/mL (≈ 4.71 µM)
Enterococcus faecium [14]
  Ratio: 2
Staphylococcus aureus [15]
  Ratio: 2

## CN[C@H](CC(C)C)C(=O)N[C@H]1C(=O)N[C@@H](CC(N)=O)C(=O)N[C@H]2C(=O)N[C@H]3C(=O)N[C@H](C(=O)N[C@H](C(=O)NCc4ccc(-c5ccc(CNC(=N)N)cc5)cc4)c4cc(O)cc(O)c4-c4cc3ccc4O)[C@H](O)c3ccc(c(Cl)c3)Oc3cc2cc(c3O[C@@H]2O[C@H](CO)[C@@H](O)[C@H](O)[C@H]2O[C@H]2C[C@](C)(N)[C@H](O)[C@H](C)O2)Oc2ccc(cc2Cl)[C@H]1O
Klebsiella pneumoniae
  MIC: > 128 µg/mL
Enterococcus faecium [1]
  Ratio: 2
Escherichia coli [2]
  Ratio: 2
Acinetobacter baumannii [3]
  Ratio: 2
Staphylococcus aureus [4]
  MIC: 0.5 µg/mL (≈ 0.297 µM)
Staphylococcus aureus [5]
  Ratio: 2
Enterococcus faecium [6]
  MIC: 2 µg/mL (≈ 1.19 µM)
Acinetobacter baumannii [7]
  Ratio: 2
Enterococcus faecium [8]
  MIC: 2 µg/mL (≈ 1.19 µM)
Staphylococcus aureus [9]
  MIC: 0.125 µg/mL (≈ 0.0742 µM)
Escherichia coli [10]
  Ratio: 2
Enterococcus faecium [11]
  MIC: 1 µg/mL (≈ 0.593 µM)
Acinetobacter baumannii [12]
  MIC: 32 µg/mL (≈ 19 µM)
Escherichia coli [13]
  MIC: 8 µg/mL (≈ 4.75 µM)
Enterococcus faecium [14]
  Ratio: 2
Staphylococcus aureus [15]
  Ratio: 2

## CC(C)C[C@@H](N)C(=O)N[C@H]1C(=O)N[C@@H](CC(N)=O)C(=O)N[C@H]2C(=O)N[C@H]3C(=O)N[C@H](C(=O)N[C@H](C(=O)NCCCCN)c4cc(O)cc(O)c4-c4cc3ccc4O)[C@H](O)c3ccc(c(Cl)c3)Oc3cc2cc(c3O[C@@H]2O[C@H](CO)[C@@H](O)[C@H](O)[C@H]2O[C@H]2C[C@](C)(N)[C@H](O)[C@H](C)O2)Oc2ccc(cc2Cl)[C@H]1O
Klebsiella pneumoniae
  MIC: > 128 µg/mL
Staphylococcus aureus [4]
  MIC: 8 µg/mL (≈ 5.31 µM)
Enterococcus faecium [6]
  MIC: 128 µg/mL (≈ 85 µM)
Enterococcus faecium [8]
  MIC: 64 µg/mL (≈ 42.5 µM)
Staphylococcus aureus [9]
  MIC: 0.5 µg/mL (≈ 0.332 µM)
Enterococcus faecium [11]
  MIC: 128 µg/mL (≈ 85 µM)
Acinetobacter baumannii [12]
  MIC: > 128 µg/mL
Escherichia coli [13]
  MIC: 32 µg/mL (≈ 21.3 µM)
Pseudomonas aeruginosa
  MIC: > 128 µg/mL

## CC(C)C[C@@H](N)C(=O)N[C@H]1C(=O)N[C@@H](CC(N)=O)C(=O)N[C@H]2C(=O)N[C@H]3C(=O)N[C@H](C(=O)N[C@H](C(=O)N[C@H](CCCNC(=N)N)C(N)=O)c4cc(O)cc(O)c4-c4cc3ccc4O)[C@H](O)c3ccc(c(Cl)c3)Oc3cc2cc(c3O[C@@H]2O[C@H](CO)[C@@H](O)[C@H](O)[C@H]2O[C@H]2C[C@](C)(N)[C@H](O)[C@H](C)O2)Oc2ccc(cc2Cl)[C@H]1O
Klebsiella pneumoniae
  MIC: > 128 µg/mL
Staphylococcus aureus [4]
  MIC: 16 µg/mL (≈ 10.1 µM)
Enterococcus faecium [6]
  MIC: 64 µg/mL (≈ 40.2 µM)
Enterococcus faecium [8]
  MIC: 32 µg/mL (≈ 20.1 µM)
Staphylococcus aureus [9]
  MIC: 0.5 µg/mL (≈ 0.314 µM)
Enterococcus faecium [11]
  MIC: 32 µg/mL (≈ 20.1 µM)
Acinetobacter baumannii [12]
  MIC: 64 µg/mL (≈ 40.2 µM)
Escherichia coli [13]
  MIC: 16 µg/mL (≈ 10.1 µM)
Pseudomonas aeruginosa
  MIC: 128 µg/mL (≈ 80.5 µM)

## CC(C)C[C@@H](N)C(=O)N[C@H]1C(=O)N[C@@H](CC(N)=O)C(=O)N[C@H]2C(=O)N[C@H]3C(=O)N[C@H](C(=O)N[C@H](C(=O)O)c4cc(O)c(CNCCCCCCCCNC(=N)N)c(O)c4-c4cc3ccc4O)[C@H](O)c3ccc(c(Cl)c3)Oc3cc2cc(c3O[C@@H]2O[C@H](CO)[C@@H](O)[C@H](O)[C@H]2O[C@H]2C[C@](C)(N)[C@H](O)[C@H](C)O2)Oc2ccc(cc2Cl)[C@H]1O
Klebsiella pneumoniae
  MIC: > 128 µg/mL
Staphylococcus aureus [4]
  MIC: 4 µg/mL (≈ 2.45 µM)
Enterococcus faecium [6]
  MIC: 32 µg/mL (≈ 19.6 µM)
Enterococcus faecium [8]
  MIC: 64 µg/mL (≈ 39.2 µM)
Staphylococcus aureus [9]
  MIC: 1 µg/mL (≈ 0.612 µM)
Enterococcus faecium [11]
  MIC: 128 µg/mL (≈ 78.4 µM)
Acinetobacter baumannii [12]
  MIC: 128 µg/mL (≈ 78.4 µM)
Escherichia coli [13]
  MIC: 32 µg/mL (≈ 19.6 µM)
Pseudomonas aeruginosa
  MIC: 128 µg/mL (≈ 78.4 µM)
